Measured values published in patent publication US20260365633A1, “Novel PEM Structures for SBX” (Roche Sequencing Solutions, Inc., priority 2023, published 2026).

Columns and labels:
[1] = test system: DNA polymerase; assay: Primer extension with XNTPs, gel electrophoresis (PEM screen, 45mer template); type: biochemical; details: for primer extension products with XNTPs: 45mer template, FIG. 4, vs no PEM additive (up to only around 14 XNTPs)
Source text: The Sequencing by Expansion (SBX) methodology developed by the inventors provides significant performance enhancements in sequence read efficiency and accuracy of Xpandomers relative to native DNA. However, initial transcription of the sequence of the natural DNA template onto the measurable Xpandomer relies on the ability of DNA polymerase to utilize XNTPs as substrates (the generalized structure of an XNTP is discussed herein with reference to FIG. 1A and FIG. 2). […] In an effort to improve the efficiency and accuracy of XNTP polymerization into Xpandomers, several PEMs were screened for the ability to enhance DNA polymerase primer extension reactions using XNTPs as substrates.
A representative primer extension reaction may include the following reagents: 2 pmol primer, 2.2 pmol 45mer [COMPOUND LEFT OUT] template, 50 pmol of each XNTP (XATP, XCTP, XGTP, and XTTP), 50 Mm Tris HCl, Ph 6.79, 200 Mm NaCl, 20% PEG, 5% NMS, 0.5 nmol polyphosphate 60.19, 0.3 Mm MnCl2, and 0.6 μg of purified recombinant DNA polymerase protein. Reactions may be run for 1 hour at 23 °C. Reaction products (i.e., constrained Xpandomers) are treated to cleave the phosphoramidate bonds, thereby generating linearized Xpandomers. Reaction products may be analyzed using gel electrophoresis on 4-12% acrylamide gels to resolve and visualize Xpandomer products of different lengths. For the PEM screen described above, PEMs were typically tested in the micro to millimolar range.

[2] = test system: DNA polymerase; assay: SBX nanopore sequencing of primer extension products, histogram of aligned reads; type: biochemical
Source text: To investigate the accuracy of PEM-dependent enhancement of XNTP polymerization, primer extension products were sequenced using the SBX protocol. Briefly, the constrained Xpandomer products of XNTP polymerization are cleaved to generate linearized Xpandomers. This is accomplished by first quenching the extension reaction with a solution containing 100 Mm EDTA, 2 Mm THPTA, and 2% Tween-20. Then the sample is subjected to amine modification with a solution of 1 M NaHCO3 and 1 M succinic anhydride in DMF. Cleavage of the phosphoramidate bonds is carried out with 37% HCl and linearized Xpandomers are purified with QIAquick columns (QIAGEN, Inc.).
For sequencing, protein nanopores are prepared by inserting a-hemolysin into a DphPE/hexadecane bilayer member in buffer B1, containing 2 M NH4Cl and 100 Mm HEPES, Ph 7.4. The cis well is perfused with buffer B2, containing 0.4 M NH4Cl, 0.6 M GuCl, and 100 Mm HEPES, Ph 7.4. The Xpandomer sample is heated to 70 °C for 2 minutes, cooled completely, then a 2 μL sample is added to the cis well. A voltage pulse of 90Mv/390Mv/10 μs is then applied and data is acquired via Labview acquisition software.
Sequence data is analyzed by histogram display of the population of sequence reads from a single SBX reaction. […] Representative histograms of SBX sequencing of a 45mer template are presented in FIG. 6A (no additive control) and FIG. 6B (SBX in the presence of PEM compound 1).

[3] = molecular target: T1, C4552 DNA polymerase (Saccharolobus solfataricus, UniProt Q97W02, A155G/A42V/D156R/D292Y/D294N/E291S/E324K/E325K/E327K/E79L/G187P/G299W/I153V/I189F/I248T/I295S/K152A/K317Q/K321Q/K56Y/K78D/L293W/M76W/N188Y/P184Q/Q82W/Q83G/R300S/S297Y/S86E/T290K/T301W/V289W/V296Q); assay: Primer extension on HIV1, HIV2, HIV3 100mer templates with C4552 polymerase, gel; type: biochemical, Sulfolobus solfataricus; details: 0.5 Mm PEM, 30 minutes at 23 °C, three 100mer templates, FIG. 9
T1 construct: Tth SSB in reaction as additive
T1 sequence (Q97W02 1-340 A155G/A42V/D156R/D292Y/D294N/E291S/E324K/E325K/E327K/E79L/G187P/G299W/I153V/I189F/I248T/I295S/K152A/K317Q/K321Q/K56Y/K78D/L293W/M76W/N188Y/P184Q/Q82W/Q83G/R300S/S297Y/S86E/T290K/T301W/V289W/V296Q): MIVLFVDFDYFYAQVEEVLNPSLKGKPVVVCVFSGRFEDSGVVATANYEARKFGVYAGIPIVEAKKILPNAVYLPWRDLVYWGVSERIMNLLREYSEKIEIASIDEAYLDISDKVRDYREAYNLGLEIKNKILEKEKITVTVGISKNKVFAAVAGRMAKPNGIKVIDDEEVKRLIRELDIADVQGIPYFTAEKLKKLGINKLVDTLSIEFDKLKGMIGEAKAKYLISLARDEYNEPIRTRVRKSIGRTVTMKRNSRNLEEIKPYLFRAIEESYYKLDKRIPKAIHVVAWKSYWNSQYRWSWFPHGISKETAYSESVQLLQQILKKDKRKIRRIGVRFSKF
Procedure: PEM activity of compounds 9-11 was tested in primer extension assays using three 100mer templates, derived from the HIV1, 2, and 3 genomes. Primer extension reactions included the following reagents: 75 Mm TrisCl, Ph 8.44, 175 Mm NH40ac, 20% PEG8K, 5% NMS, 0.8 nmol PP-60.20, 0.6 Mm MnCl2, 2.3 μg Tth single-strand binding protein (SSB), 0.5 M or 1 M urea, 200 pmol each XNTP, 1.1 pmol template, 1 pmol [COMPOUND LEFT OUT] primer, 1.2 μg purified recombinant C4552 DNA polymerase, and 0.5 Mm PEM. 10 μL primer extension reactions were run for 30 minutes at 23 °C and reaction products were analyzed by gel electrophoresis.

[4] = test system: nucleic acid polymerase; assay: PEM activity summary: primer extension on 45mer, 100mer, 150mer, 222mer DNA templates, gel (Table 2); type: biochemical; details: preliminary functional characterization
Procedure: In some instances, the PEM compounds of the present disclosure were tested in primer extension reactions using DNA templates of the following lengths: A) 45mer; B) 100mer; C) 150mer; and D) 222mer.

Q: Which results are given for O=C(O)c1ccc(-n2cc(-c3cccc(-c4cn(-c5ccc(C(=O)O)c(O)c5)nn4)n3)nn2)cc1O [Compound 1, 4,4′-(pyridine-2,6-diylbis(1H-1,2,3-triazole-4,1-diyl))bis(2-hydroxybenzoic acid)]?
A: primer extension products with XNTPs [1]: considerably longer extension products; accuracy of sequence reads ([2]; 45mer template, FIG. 6B, vs no additive (not accurate past around base 18)): increased the accuracy of the sequence reads across the entire length of the 45mer template; sequence reads ([2]; 60mer template, FIG. 7A): accurate sequence reads completely to the end; sequence reads ([2]; 80mer template, FIG. 7B): accurate sequence reads completely to the end

Q: O=C(O)c1ccc(-n2cc(-c3cncc(-c4cn(-c5ccc(C(=O)O)c(O)c5)nn4)c3)nn2)cc1O [Compound 2, 4,4′-(pyridine-3,5-diylbis(1H-1,2,3-triazole-4,1-diyl))bis(2-hydroxybenzoic acid)] was tested. Which “primer extension activity with XNTPs” value ([1]; FIG. 5, PEM at various concentrations, vs no PEM additive) did it give?
A: significantly enhances primer extension activity

Q: Which “primer extension products with XNTPs” value [1] does the source give for O=C(O)c1ccc(-n2cc(-c3cccc(-c4cn(-c5ccc(C(=O)O)c(O)c5)nn4)c3)nn2)cc1O [Compound 3, 4,4′-(1,3-phenylenebis(1H-1,2,3-triazole-4,1-diyl))bis(2-hydroxybenzoic acid)] here?
A: considerably longer extension products

Q: Which “primer extension products with XNTPs” value [1] does the source give for O=C(O)c1ccc(-n2cc(-c3ccc4[nH]c5ccc(-c6cn(-c7ccc(C(=O)O)c(O)c7)nn6)cc5c4c3)nn2)cc1O [Compound 4, 4,4′-((9H-carbazole-3,6-diyl)bis(1H-1,2,3-triazole-4,1-diyl))bis(2-hydroxybenzoic acid)] here?
A: considerably longer extension products

Q: With COc1cc(-c2cn(-c3ccc(C(=O)O)c(O)c3)nn2)nc(-c2cn(-c3ccc(C(=O)O)c(O)c3)nn2)c1 [Compound 9, 4,4′-((4-methoxypyridine-2,6-diyl)bis(1H-1,2,3-triazole-4,1-diyl))bis(2-hydroxybenzoic acid)] as the compound, how does the “XNTP polymerization efficiency relative to compound 1” value [3] read?
A: at least as efficiently as compound 1

Q: For O=C(O)c1ccc(-n2cc(-c3cc([N+](=O)[O-])cc(-c4cn(-c5ccc(C(=O)O)c(O)c5)nn4)n3)nn2)cc1O [Compound 11, 4,4′-((4-nitropyridine-2,6-diyl)bis(1H-1,2,3-triazole-4,1-diyl))bis(2-hydroxybenzoic acid)], which “XNTP polymerization efficiency relative to compound 1” value [3] is on record?
A: at least as efficiently as compound 1

Q: How did the “Functional Category: PEM effect” value [4] turn out when CCNC(=O)c1cc(-c2cn(-c3ccc(C(=O)NCC(=O)NCC(=O)O)c(C(F)(F)F)c3)nn2)nc(-c2cn(-c3ccc(C(=O)NCC(=O)NCC(=O)O)c(C(F)(F)F)c3)nn2)c1 [Compound 113, 2,2′-((2,2′-((4,4′-((4-(ethylcarbamoyl)pyridine-2,6-diyl)bis(1H-1,2,3-triazole-4,1-diyl))bis(2-(trifluoromethyl)benzoyl))bis(azanediyl))bis(acetyl))bis(azanediyl))diacetic acid] was run?
A: PEM effect

Q: With O=C(O)c1ccc(-n2cc(-c3cccc(-c4cn(-c5ccc(C(=O)O)c(O)c5)nn4)c3)nn2)cc1 [Compound 176, 4-(4-{m-[1-(p-Carboxyphenyl)-1H-1,2,3-triazol-4-yl]phenyl}-1H-1,2,3-triazol-1-yl)-2-hydroxybenzoic acid] as the compound, how does the “Functional Category: PEM effect” value [4] read?
A: PEM effect

Q: How did the “Functional Category: PEM effect” value [4] turn out when CCNC(=O)c1cc(-c2cn(-c3ccc4cc(C(=O)O)ccc4c3)nn2)nc(-c2cn(-c3ccc4cc(C(=O)O)ccc4c3)nn2)c1 [Compound 206, 6-(4-{6-[1-(6-Carboxy-2-naphthyl)-1H-1,2,3-triazol-4-yl]-4-(N-ethylcarbamoyl)-2-pyridyl}-1H-1,2,3-triazol-1-yl)-2-naphthoic acid] was run?
A: PEM effect

Q: How did the “Functional Category: PEM effect” value [4] turn out when CCNC(=O)c1cc(-c2cn(-c3ccc(C(=O)NCC)c(C(F)(F)F)c3)nn2)nc(-c2cn(-c3ccc(C(=O)NCC)c(C(F)(F)F)c3)nn2)c1 [Compound 236, N-Ethyl-2,6-bis{1-[4-(N-ethylcarbamoyl)-3-(trifluoromethyl)phenyl]-1H-1,2,3-triazol-4-yl}isonicotinamide] was run?
A: PEM effect
